Data set [1] in a line: Cytotoxicity against human Hs578T cells assessed as growth inhibition after 48 hrs by MTT assay. Format: functional, cell-based. Conditions: Hs-578T.
In data set [2] the test system is MDA-MB-231. The experiment in a line: Cell cycle arrest in human MDA-MB-231 cells assessed as accumulation at G2/M phase at 0.4 uM after 24 hrs by propidium iodide staining-based flow cytometric analysis (reference value: 12 +/- 2%). The data set is classed as functional.
Data set [3] relates to MDA-MB-231. The experiment in a line: Induction of apoptosis in human MDA-MB-231 cells assessed as DNA ladder formation at 0.4 to 3.2 uM after 24 hrs. Format: functional, cell-based.
The subject of data set [4] is MDA-MB-231. The experiment in a line: Cell cycle arrest in human MDA-MB-231 cells assessed as accumulation at G0/G1 phase at 0.4 uM after 24 hrs by propidium iodide staining-based flow cytometric analysis (reference value: 57 +/- 6%). The data set is classed as functional.
Data set [5] has as its system MDA-MB-231. The experiment in a line: Cell cycle arrest in human MDA-MB-231 cells assessed as accumulation at S phase at 0.4 uM after 48 hrs by propidium iodide staining-based flow cytometric analysis (reference value: 26 +/- 3%). Format: functional.
In data set [6] the test system is MDA-MB-231. The experiment in a line: Cell cycle arrest in human MDA-MB-231 cells assessed as accumulation at sub-G1 phase at 0.4 uM after 24 hrs by propidium iodide staining-based flow cytometric analysis relative to control. Format: functional.
The test system of data set [7] is MDA-MB-231. The experiment in a line: Cell cycle arrest in human MDA-MB-231 cells assessed as accumulation at G0/G1 phase at 0.8 uM after 24 hrs by propidium iodide staining-based flow cytometric analysis (reference value: 57 +/- 6%). The data set is classed as functional.
For data set [8], the system named is MDA-MB-231. The experiment in a line: Induction of DNA damage in human MDA-MB-231 cells at 3.2 uM after 48 hrs by alkaline comet assay relative to control. The data set is classed as functional.
In data set [9] the test system is MDA-MB-231. The experiment in a line: Downregulation of Bcl-xL protein expression in human MDA-MB-231 cells after 48 hrs by Western blot analysis. Format: functional, cell-based.
Data set [10] deals with MDA-MB-231. The experiment in a line: Antitumor activity against luciferase-expressing human MDA-MB-231 cells xenografted in nude mouse assessed as tumor growth inhibition at 10 mg/kg, ip administered every other day measured on day 54 relative to vehicle-treated control. Format: functional. Conditions: MDA-MB-231, ip, 1296 h, read-out: TGI.
Data set [11] is described as follows: Cytotoxicity against human M10 cells assessed as growth inhibition at 20 uM after 48 hrs by MTT assay relative to control. The data set is classed as cell-based. Conditions: read-out: GI.
For data set [12], the system named is MDA-MB-231. The experiment in a line: Cell cycle arrest in human MDA-MB-231 cells assessed as accumulation at S phase at 0.8 uM after 24 hrs by propidium iodide staining-based flow cytometric analysis (reference value: 32 +/- 4%). The data set is classed as functional.
The subject of data set [13] is MDA-MB-231. The experiment in a line: Cell cycle arrest in human MDA-MB-231 cells assessed as accumulation at S phase at 0.8 uM after 48 hrs by propidium iodide staining-based flow cytometric analysis (reference value: 26 +/- 3%). Format: functional.

The source made the active and inactive calls. The rule behind the calls is not given here.

On to `Oc1ccc2[nH]cc(C(c3ccc(C(c4c[nH]c5ccc(O)cc45)c4c[nH]c5ccc(O)cc45)nc3)c3c[nH]c4ccc(O)cc34)c2c1`, for which the IC50 in data set [1] was > 20 µM. Also, the Activity with MDA-MB-231 [2] is 13.2%; in the data set with MDA-MB-231 [4], 53%; in the data set on MDA-MB-231 [5], 28%; with MDA-MB-231 [6], 0.1%; with MDA-MB-231 [7], 54%; with MDA-MB-231 [9], “Dose-dependent effect”. The Activity in the data set with MDA-MB-231 [12] is listed as 31%; with MDA-MB-231 [13] it was 29%. For the same compound, the outcome in the data set with MDA-MB-231 [3] was inactive. Also, the “fold change (FC)” value with MDA-MB-231 [8] is 12. Further, the inhibition in vivo at 10 mg/kg in the data set with MDA-MB-231 [10] was determined as 58%. Further, the inhibition at 48 h, 20 µM in data set [11] was 37%.

These data come from ChEMBL document CHEMBL3734724, “Anticancer efficacy of unique pyridine-based tetraindoles” (Eur J Med Chem, 2015).
